The text below walks through data of PubChem BioAssay (NCI).

Common to all, as to assay: NCI anticancer screen, dose series, 48 h
For test [1], the system named is KM12 colon.
In test [2] the test system is OVCAR-5 ovarian.
The subject of test [3] is HT29 colon.
The subject of test [4] is TK-10 renal.
Test [5] deals with SNB-19 CNS.
The subject of test [6] is UO-31 renal.
The subject of test [7] is HCT-116 colon.
Test [8] deals with K-562 leukemia.
Test [9] has as its system IGROV1 ovarian.
For test [10], the system named is A498 renal.

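Dose response: 5 concentrations. Exposure: 48 h. Format: 96-well plates. Endpoint: linear interpolation; highest concentration if not reached. GI50 is the concentration that inhibits growth by half. TGI: concentration producing complete growth inhibition.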 A value given as a limit tells only on which side of the number the result lay.

Consider `CC(=O)c1ccc(O)c(CN(C2CCCCC2)C2CCCCC2)c1O`, for which the TGI in test [1], in test [2], in [3], in test [4], in test [5] and in [6] was greater than 100 µM throughout. Moreover, the TGI in [7], in test [8], in test [9] and in test [10] was greater than 100 µM each time.
Regarding `O=S(=O)(CCCl)c1ccc(Cl)cc1`, the GI50 was 12.9 µM in test [1]; 3.56 µM in test [2]; 3.23 µM in test [3]; 2.32 µM in test [4]; 13.2 µM in [5]; 2.45 µM in [6]. Moreover, the GI50 in [7] was 2.74 µM; in test [8], 3.98 µM; in test [9], 2.41 µM; in test [10] it was 2.26 µM. The TGI in test [1] was determined as 31.4 µM; in test [2] it was 14.2 µM; in test [3], 13.8 µM; in [4], 6.44 µM; in test [5], 41.1 µM; in [6], 8.16 µM. The TGI in test [7] was 11.9 µM; in test [8] it was greater than 100 µM; in test [9] it was 7.44 µM; in test [10], 9.94 µM.
`O=C1OCC2=C1C(c1ccccc1)c1cc3c(cc1N2CCO)OCO3` (stereo not given): the GI50 in [1] is 2.37 µM; in test [2], 13.4 µM; in test [3], 1.72 µM; in test [4] it was 32.7 µM; in test [5], 15.6 µM; in test [6], 27.8 µM. The GI50 is 1.79 µM in test [7], 1.91 µM in [8], 2.91 µM in test [9] and 3.38 µM in test [10]. The TGI in [1], in test [2], in test [3], in test [4], in test [5] and in test [6] was greater than 50 µM throughout. In addition, the TGI in test [7], in test [8], in [9] and in test [10] was greater than 50 µM each time.
As for `COc1cc(NCCCCCCCNC(C)C)c2nccc(C)c2c1`, the GI50 was 13.7 µM in test [1]; 15.4 µM in [2]; 4.29 µM in test [3]; 17.1 µM in test [4]; 16 µM in [5]; 7.41 µM in test [6]. In addition, the GI50 in test [7] is 6.95 µM; in test [8] it was 3.46 µM; in test [9], 13.3 µM; in test [10] it was 15.3 µM. The TGI in [1] was 27.9 µM; in test [2] it was 29.7 µM; in test [3], 16.4 µM; in [4], 32.7 µM; in [5], 30 µM; in test [6], 23 µM. Moreover, the TGI in test [7] stood at 19.9 µM; in test [8], 14.6 µM; in test [9], 34.5 µM; in test [10] it was 29.6 µM.
Turning to `C=CC(OCC)(OCC)OCC`, the TGI in [1], in [2], in test [3], in test [4], in test [5] and in test [6] was greater than 100 µM each time. The TGI in [7] is 43.6 µM; in [8], greater than 100 µM; in test [9] it was greater than 100 µM; in test [10], greater than 100 µM.
With `COc1ccc2c(c1)/C(=C/c1cc(OC)c(OC)c(OC)c1)C(=O)N2`, the GI50 was 0.102 µM in test [1]; 1.9 µM in test [2]; 0.116 µM in test [3]; 1.19 µM in test [4]; 0.433 µM in test [5]; 2.74 µM in test [6]. For the same compound, the GI50 in test [7] is 0.0272 µM; in test [8], less than 0.0327 µM; in test [9] it was 0.268 µM; in test [10], 0.146 µM. The TGI in [1] is greater than 39.9 µM; in test [2], greater than 100 µM; in test [3], 21.1 µM; in [4], greater than 70.6 µM; in test [5], greater than 100 µM; in test [6] it was greater than 100 µM. Also, the TGI is greater than 100 µM in [7], greater than 36.3 µM in test [8], greater than 53.8 µM in test [9] and 0.848 µM in test [10].
Regarding `CCOC(=O)NC(=O)c1cn(CCN2CCN(C(=O)CCCCCCCCCCC(=O)N3CCN(CCn4cc(C(=O)NC(=O)OCC)c(=O)[nH]c4=O)CC3)CC2)c(=O)[nH]c1=O`, the TGI in test [1], in test [2], in [3], in [4], in test [5] and in test [6] was greater than 100 µM each time. Further, the TGI in test [7], in [8], in [9] and in [10] was greater than 100 µM each time.
For the compound `CCCCN(CC)CC(C(C)=O)c1c(O)c2ccccc2oc1=O` (stereo not given), the TGI in test [1], in [2], in test [3], in test [4], in test [5] and in test [6] was greater than 100 µM in each case. Also, the TGI in test [7], in test [8], in [9] and in test [10] was greater than 100 µM in each case.
For the compound `O=c1oc2ccccc2[n+]([O-])c1-c1ccccc1`, the TGI in test [1], in [2], in test [3], in [4], in [5] and in test [6] was greater than 100 µM throughout. Further, the TGI in [7], in test [8], in test [9] and in test [10] was greater than 100 µM in each case.
On to `N#CNC(N)=Nc1ccc(Cl)cc1`, for which the TGI in test [1], in test [2], in [3], in test [4], in test [5] and in test [6] was greater than 100 µM in each case. Moreover, the TGI in [7], in test [8], in test [9] and in test [10] was greater than 100 µM each time.
`CC1(C)CC2C(=O)c3ccccc3NC2c2ccccc21` (stereo not given): the TGI was greater than 81.3 µM in [1]; greater than 100 µM in test [2]; greater than 33.2 µM in test [3]; greater than 100 µM in [4]; greater than 100 µM in test [5]; greater than 67.2 µM in test [6]. In addition, the TGI in [7] was greater than 100 µM; in [8] it was greater than 90.6 µM; in test [9], greater than 100 µM; in test [10] it was greater than 100 µM.
Take `Cc1ccc(NC(=O)c2cc(S(=O)(=O)N3C(=O)NC(=O)NS3(=O)=O)c(S)cc2Cl)cc1`: the GI50 in test [1] was 22.2 µM; in test [2], 56.5 µM; in [3], 42.8 µM; in [4], 27.8 µM; in test [5], 69.5 µM; in test [6], 27.8 µM. Moreover, the GI50 in test [7] was 30.3 µM; in test [8], 22.2 µM; in test [9], 26.1 µM; in test [10] it was 26.2 µM. In addition, the TGI in test [1] is 52.2 µM; in test [2], greater than 100 µM; in [3], greater than 100 µM; in test [4], 71.3 µM; in [5], greater than 100 µM; in test [6], greater than 100 µM. For the same compound, the TGI was greater than 100 µM in [7], 68.7 µM in test [8], 90.4 µM in test [9] and 68.5 µM in [10].
As for `Cc1ccccc1C(=O)N1CCN(C(=O)c2ccccc2C)CC1`, the TGI in test [1], in test [2], in test [3], in test [4], in test [5] and in test [6] was greater than 100 µM in each case. Moreover, the TGI in test [7], in test [8], in test [9] and in test [10] was greater than 100 µM in each case.
Regarding `C/C(=N/NC(=O)C[N+](C)(C)C)C(CN(C)C)C(=O)Nc1ccccc1` (stereo not given), the TGI in [1], in test [2], in test [3], in test [4], in [5] and in test [6] was greater than 100 µM in each case. Besides, the TGI in test [7], in test [8], in test [9] and in [10] was greater than 100 µM each time.
For `O=c1c(F)cn(Cc2ccccc2CCl)c(=O)n1Cc1ccccc1CCl`, the GI50 in test [1] was 1.74 µM; in [2] it was 5.07 µM; in [3], 2.01 µM; in test [4], 2.15 µM; in [5] it was 3.5 µM; in test [6], 1.99 µM. For the same compound, the GI50 is 1.11 µM in [7], 1.89 µM in [8], 1.33 µM in test [9] and 1.58 µM in test [10]. For the same compound, the TGI in test [1] was 3.68 µM; in test [2], 11 µM; in [3], 4.71 µM; in [4], 5.44 µM; in test [5], 13.3 µM; in test [6] it was 5.3 µM. Moreover, the TGI in [7] is 2.84 µM; in test [8], greater than 100 µM; in test [9] it was 2.99 µM; in [10], 5.97 µM.
Regarding `CCOC(=O)C1SC(=Nc2ccc(Cl)cc2)N=C1C` (stereo not given), the TGI in [1] is 36.1 µM; in test [2] it was 39.3 µM; in test [3] it was 30.8 µM; in [4], 64.4 µM; in [5], 35 µM; in test [6], 33.7 µM. In addition, the TGI was found to be 30.2 µM in test [7], 43.3 µM in [8], 40 µM in test [9] and 41.3 µM in test [10].
`O=C(Nc1ccc(Cl)c(Cl)c1)NS(=O)(=O)c1cnccc1Oc1ccc(F)cc1`: the GI50 is 3.75 µM in test [1]; 6.28 µM in test [2]; 3.63 µM in test [3]; 3.69 µM in test [4]; 4.29 µM in [5]; 2.62 µM in test [6]. Also, the GI50 is 3.07 µM in [7], 3.27 µM in test [8], 2.69 µM in [9] and greater than 100 µM in test [10]. Besides, the TGI is 16.7 µM in test [1]; 95.2 µM in [2]; greater than 100 µM in [3]; 21.6 µM in [4]; greater than 100 µM in [5]; 9.51 µM in [6]. For the same compound, the TGI is 12.3 µM in [7], greater than 100 µM in test [8], 8.59 µM in [9] and greater than 100 µM in test [10].
As to `Cc1cc(N(CCC#N)CCC#N)ccc1/C=C(\NC(=O)/C=C/c1ccccc1)C(=O)NN`, the TGI is greater than 100 µM in [1]; greater than 100 µM in test [2]; greater than 100 µM in test [3]; greater than 76.8 µM in test [4]; greater than 55.7 µM in [5]; greater than 100 µM in [6]. Further, the TGI in test [7], in test [8], in [9] and in test [10] was greater than 100 µM throughout.
In the case of `C(=N\Nc1nnn(Cc2ccccc2)n1)/c1ccccc1`, the GI50 in test [1] is 0.905 µM; in test [2], greater than 43.7 µM; in [3], 1.26 µM; in test [4], 20 µM; in test [5], 9.95 µM; in test [6], 9.68 µM. In addition, the GI50 in test [7] was 3.82 µM; in [8], 0.43 µM; in [9], 7.05 µM; in test [10], 5.76 µM. The TGI in [1] is greater than 100 µM; in test [2] it was greater than 96.6 µM; in test [3], greater than 100 µM; in [4], greater than 100 µM; in [5], 64.8 µM; in [6] it was greater than 100 µM. Moreover, the TGI is greater than 73.3 µM in [7], greater than 100 µM in [8], greater than 100 µM in [9] and 55.3 µM in test [10].
In the case of `C=C1C(=O)O[C@H]2[C@H]1CC/C(C=Nc1c(N)cc(C(F)(F)F)cc1Br)=C\CC[C@@]1(C)O[C@@H]21`, the GI50 is 1.8 µM in test [1]; 1.83 µM in [2]; 1.63 µM in [3]; 1.98 µM in test [4]; 3.46 µM in test [5]; 1.26 µM in test [6]. Moreover, the GI50 in test [7] is 1.11 µM; in test [8], 1.99 µM; in [9], 1.42 µM; in test [10] it was 2.03 µM. Further, the TGI was determined as 3.97 µM in test [1]; 3.75 µM in [2]; 3.13 µM in test [3]; 3.49 µM in test [4]; 13.2 µM in [5]; 2.52 µM in test [6]. The TGI in test [7] came out at 2.41 µM; in test [8], 6.87 µM; in test [9] it was 3.01 µM; in test [10] it was 4.8 µM.
